Test results: publication PMC12214830, “The human RIF1-Long isoform interacts with BRCA1 to promote recombinational fork repair under DNA replication stress” (Nature Communications, 2025)
Each block holds one substance with its values, some of them ahead of it.

Experiments:
[1] = tested on: RIF1-L-pS2265 antibody; experiment: ELISA, RIF1-L pS2265 antibody binding to exon 31 peptides; parameters: key: absorbance at 450 nm, blank-subtracted
Protocol: Two biotinylated peptides corresponding to exon 31 of human RIF1-L without phosphorylation (Biotin-(long chain)-[…]) and with phosphorylation at S2265 (Biotin-(long chain)-[…]-pS-[…]) were synthesised by Eurogentec Ltd (Southampton, Hampshire, UK). Two peptides were mixed in a variable ratio of 0–1% phosphorylated peptide/total peptide. The concentration of total peptide was kept constant at 250 nM in the ELISA wash buffer (1x TBS with 0.1% BSA and 0.05% Tween-20). The peptides were incubated within streptavidin-coated 96-well plates (Pierce Streptavidin Coated High Capacity Plates, Thermo Scientific, 15500) for 2 h at room temperature. After washing with ELISA wash buffer, the RIF1-L pS2265 phospho-antibody (1:2500 dilution) was added and incubated for 2 h at room temperature, followed by washing and incubation with HRP-conjugated secondary antibody (anti-rabbit; Bio-Rad #1706515, 1/10,000 dilution) for 1 h at room temperature. After washing, TMB substrate solution (1-Step Slow TMB-Elisa Substrate Solution, ThermoFisher, 34024) was added to develop the blue colour. 1 N HCl was then added to stop the reaction. Absorbance at 450 nm was measured. The average readings of the blank wells were subtracted. Mean and standard deviations of technical triplicates are shown.

[2] = tested on: HCT116 cells; experiment: colony formation (clonogenic survival) assay, HCT116 cells; type: cell-based, human; details: HCT116 expressing only RIF1-L or only RIF1-S
Protocol: For HCT116-derived cells, cells were plated in 6-well plates at 250 cells/well, in triplicate for each drug concentration. Cells were incubated with drugs for 24 h, after which drug-containing medium was replaced with drug-free medium. Seven days later colony counting was performed using a Nikon Eclipse TS100 microscope. For the IR sensitivity test, cells were plated following the same procedure, then irradiated at desired doses and incubated for 7 days before colony counting. Clusters with more than 20 cells were counted as colonies. Mean and standard error of each triplicate was calculated.

[3] = tested on: micronuclei; experiment: micronuclei frequency, HeLa cells; type: cell-based, human; details: Fig.7H
Protocol: For proximity ligation assays and immunofluorescence signal intensity measurements, when comparing between two samples, statistical significance of differences was calculated by Mann-Whitney test for non-parametric distributions using GraphPad Prism software (v.9). When comparing among three or more samples, p values were calculated by Kruskal-Wallis test for non-parametric distributions with Dunn’s multiple comparisons using GraphPad Prism software (v.9). For RIF1 foci formation analysis (Fig. 6B), p values were calculated by two-tailed Student’s t test. For nuclear BRCA1 intensity fold change analyses (Fig. 6C, D), p values were calculated by two-tailed one-sample t test using GraphPad Prism software (v.9). For RAD51 foci formation analyses (Fig. 7B, E and Supplementary Fig. 7B), p values were calculated by chi-square test. For HR Reporter assay analysis (Fig. 7G and Supplementary Fig. 7L), p values were calculated by two-tailed paired Student’s t test. For micronuclei frequency analysis (Fig. 7H), p values were calculated by one-tailed paired Student’s t test. All Student’s t tests were performed with Excel T.TEST function. Chi-square tests were performed with the online Chi-square test calculator at https://www.socscistatistics.com/tests/chisquare2/default2.aspx. Sample number n for all box-and-whisker plots and dot plots are listed in Supplementary Data 1.

[4] = HeLa RIF1 KO + GFP-RIF1 derivative cells, HU, experiment 07Jun2024
[5] = HeLa RIF1 KO + GFP-RIF1 derivative cells, unt, experiment 07Jun2024

A450, Average ([1]; 0.00% phosphorylated/total peptide (250 nM total), mean of technical triplicates): 0.009
A450 ([1]; 0.00% phosphorylated/total peptide (250 nM total), replicate 1): 0.01
A450 ([1]; 0.00% phosphorylated/total peptide (250 nM total), replicate 2): 0.008
A450 ([1]; 0.00% phosphorylated/total peptide (250 nM total), replicate 3): 0.01
A450, Average ([1]; 0.13% phosphorylated/total peptide (250 nM total), mean of technical triplicates): 0.104
A450 ([1]; 0.13% phosphorylated/total peptide (250 nM total), replicate 1): 0.106
A450 ([1]; 0.13% phosphorylated/total peptide (250 nM total), replicate 2): 0.104
A450 ([1]; 0.13% phosphorylated/total peptide (250 nM total), replicate 3): 0.103
A450, Average ([1]; 0.25% phosphorylated/total peptide (250 nM total), mean of technical triplicates): 0.166
A450 ([1]; 0.25% phosphorylated/total peptide (250 nM total), replicate 1): 0.16
A450 ([1]; 0.25% phosphorylated/total peptide (250 nM total), replicate 2): 0.169
A450 ([1]; 0.25% phosphorylated/total peptide (250 nM total), replicate 3): 0.169
A450, Average ([1]; 0.50% phosphorylated/total peptide (250 nM total), mean of technical triplicates): 0.239
A450 ([1]; 0.50% phosphorylated/total peptide (250 nM total), replicate 1): 0.247
A450 ([1]; 0.50% phosphorylated/total peptide (250 nM total), replicate 2): 0.216
A450 ([1]; 0.50% phosphorylated/total peptide (250 nM total), replicate 3): 0.255
A450, Average ([1]; 1.00% phosphorylated/total peptide (250 nM total), mean of technical triplicates): 0.346
A450 ([1]; 1.00% phosphorylated/total peptide (250 nM total), replicate 1): 0.348
A450 ([1]; 1.00% phosphorylated/total peptide (250 nM total), replicate 2): 0.343
A450 ([1]; 1.00% phosphorylated/total peptide (250 nM total), replicate 3): 0.347
A450, Average ([1]; Standard 0.13%, average of 3, right block): 0.104
A450 ([1]; Standard 0.13%, replicate 1, left block): 0.155
A450 ([1]; Standard 0.13%, replicate 1, right block (0.049 below left block)): 0.106
A450 ([1]; Standard 0.13%, replicate 2, left block): 0.153
A450 ([1]; Standard 0.13%, replicate 2, right block (0.049 below left block)): 0.104
A450 ([1]; Standard 0.13%, replicate 3, left block): 0.152
A450 ([1]; Standard 0.13%, replicate 3, right block (0.049 below left block)): 0.103
A450, Average ([1]; Standard 0.25%, average of 3, right block): 0.166
A450 ([1]; Standard 0.25%, replicate 1, left block): 0.209
A450 ([1]; Standard 0.25%, replicate 1, right block (0.049 below left block)): 0.16
A450 ([1]; Standard 0.25%, replicate 2, left block): 0.218
A450 ([1]; Standard 0.25%, replicate 2, right block (0.049 below left block)): 0.169
A450 ([1]; Standard 0.25%, replicate 3, left block): 0.218
A450 ([1]; Standard 0.25%, replicate 3, right block (0.049 below left block)): 0.169
A450, Average ([1]; Standard 0.50%, average of 3, right block): 0.239
A450 ([1]; Standard 0.50%, replicate 1, left block): 0.296
A450 ([1]; Standard 0.50%, replicate 1, right block (0.049 below left block)): 0.247
A450 ([1]; Standard 0.50%, replicate 2, left block): 0.265
A450 ([1]; Standard 0.50%, replicate 2, right block (0.049 below left block)): 0.216
A450 ([1]; Standard 0.50%, replicate 3, left block): 0.304
A450 ([1]; Standard 0.50%, replicate 3, right block (0.049 below left block)): 0.255
A450, Average ([1]; Standard 1.00%, average of 3, right block): 0.346
A450 ([1]; Standard 1.00%, replicate 1, left block): 0.397
A450 ([1]; Standard 1.00%, replicate 1, right block (0.049 below left block)): 0.348
A450 ([1]; Standard 1.00%, replicate 2, left block): 0.392
A450 ([1]; Standard 1.00%, replicate 2, right block (0.049 below left block)): 0.343
A450 ([1]; Standard 1.00%, replicate 3, left block): 0.396
A450 ([1]; Standard 1.00%, replicate 3, right block (0.049 below left block)): 0.347
Substance: Biotin-(long chain)-HNTTSAKGFLSPGSR-pS-PKFKSSKKCL [RIF1-L-phosphoS2265 peptide, biotinylated exon 31 peptide of human RIF1-L phosphorylated at S2265]

Substance: Phleomycin
colony growth after treatment, RIF1-L and RIF1-S cells [2]: able to support colony growth

Substance: RIF1-L -APKF
Micronuclei per 100 ([3]; HU, experiment 14Apr2024): 14.2857
Micronuclei per 100 [3, 4]: 12.35
Micronuclei per 100 [3, 5]: 6.03
Micronuclei per 100 ([3]; unt, experiment 14Apr2024): 4.214

Substance: RIF1-S
Micronuclei per 100 ([3]; HU, experiment 14Apr2024): 12.4358
Micronuclei per 100 [3, 4]: 12.93
Micronuclei per 100 [3, 5]: 6.41
Micronuclei per 100 ([3]; unt, experiment 14Apr2024): 6.217
